Measurements reported in US20220183294A1, “PESTICIDALLY ACTIVE AZOLE AMIDE COMPOUNDS” (SYNGENTA CROP PROTECTION AG, priority 2019, published 2022).

Experiments:
[1] = system: Chilo suppressalis (Striped rice stemborer); assay: Example B4: Chilo suppressalis (Striped rice stemborer), artificial diet; type: in vivo; conditions: 144 h, application rate 200 ppm, L2 larvae, 6 days after infestation, read-out: control in at least one of the three categories (mortality, anti-feedant effect, or growth inhibition)
Protocol: Example B4: Chilo suppressalis (Striped rice stemborer) 24-well microtiter plates with artificial diet were treated with aqueous test solutions prepared from 10′000 ppm DMSO stock solutions by pipetting. After drying, the plates were infested with L2 larvae (6-8 per well). The samples were assessed for mortality, anti-feeding effect, and growth inhibition in comparison to untreated samples 6 days after infestation. Control of Chilo suppressalis by a test sample is given when at least one of the categories mortality, anti-feedant effect, and growth inhibition is higher than the untreated sample.

[2] = system: Plutella xylostella (Diamondback Moth); assay: Example B13: Plutella xylostella (Diamondback Moth), artificial diet, 96-well; type: in vivo; conditions: 216 h, application rate 500 ppm, eggs/L1 larvae, 9 days after infestation
Protocol: Example B13: Plutella xylostella (Diamondback Moth)
96-well microtiter plates containing artificial diet were treated with aqueous test solutions, prepared from 10′000 ppm DMSO stock solutions, by a liquid handling robot. After drying, eggs (-30 per well) were infested onto a netted lid which was suspended above the diet. The eggs hatch and L1 larvae move down to the diet. The samples were assessed for mortality 9 days after infestation.
The following compounds gave an effect of at least 80% mortality at an application rate of 500 ppm: […]

[3] = system: Spodoptera littoralis (Egyptian cotton leaf worm); assay: Example B9: Spodoptera littoralis (Egyptian cotton leaf worm), sprayed cotton leaf discs; type: in vivo; conditions: foliar, 72 h, application rate 200 ppm, L1 larvae, 3 days after infestation, read-out: control in at least one of the three categories (mortality, anti-feedant effect, or growth inhibition)
Protocol: Example B9: Spodoptera littoralis (Egyptian cotton leaf worm)
Cotton leaf discs were placed onto agar in 24-well microtiter plates and sprayed with aqueous test solutions prepared from 10′000 ppm DMSO stock solutions. After drying the leaf discs were infested with five L1 larvae. The samples were assessed for mortality, anti-feeding effect, and growth inhibition in comparison to untreated samples 3 days after infestation. Control of Spodoptera littoralis by a test sample is given when at least one of the categories mortality, anti-feedant effect, and growth inhibition is higher than the untreated sample.

[4] = system: Plutella xylostella (Diamond back moth); assay: Example B5: Plutella xylostella (Diamond back moth), artificial diet, 24-well; type: in vivo; conditions: 192 h, application rate 200 ppm, eggs, 8 days after infestation, read-out: control in at least one of the two categories (mortality or growth inhibition)
Protocol: Example B5: Plutella xylostella (Diamond back moth)
24-well microtiter plates with artificial diet were treated with aqueous test solutions prepared from 10′000 ppm DMSO stock solutions by pipetting. After drying, Plutella eggs were pipetted through a plastic stencil onto a gel blotting paper and the plate was closed with it. The samples were assessed for mortality and growth inhibition in comparison to untreated samples 8 days after infestation.
(§1) The following compounds gave an effect of at least 80% control in at least one of the two categories (mortality or growth inhibition) at an application rate of 200 ppm: […]

[5] = system: Diabrotica balteata (Corn root worm); assay: Example B1: Diabrotica balteata (Corn root worm), sprayed maize sprouts; type: in vivo; conditions: 96 h, application rate 200 ppm, L2 larvae, 4 days after infestation, read-out: control in at least one of the two categories (mortality or growth inhibition)
Protocol: Example B1: Diabrotica balteata (Corn root worm)
Maize sprouts placed onto an agar layer in 24-well microtiter plates were treated with aqueous test solutions prepared from 10′000 ppm DMSO stock solutions by spraying. After drying, the plates were infested with L2 larvae (6 to 10 per well). The samples were assessed for mortality and growth inhibition in comparison to untreated samples 4 days after infestation.
as §1

[6] = system: Euschistus heros (Neotropical Brown Stink Bug); assay: Example B2: Euschistus heros (Neotropical Brown Stink Bug), sprayed soybean leaves; type: in vivo; conditions: 120 h, application rate 200 ppm, N2 nymphs, 5 days after infestation, read-out: effect in at least one of the two categories (mortality or growth inhibition)
Protocol: Example B2: Euschistus heros (Neotropical Brown Stink Bug)
Soybean leaves on agar in 24-well microtiter plates were sprayed with aqueous test solutions prepared from 10′000 ppm DMSO stock solutions. After drying the leaves were infested with N2 nymphs. The samples were assessed for mortality and growth inhibition in comparison to untreated samples 5 days after infestation.
The following compounds gave an effect of at least 80% in at least one of the two categories (mortality or growth inhibition) at an application rate of 200 ppm: […]

With `CC(NC(=O)c1cc(C(F)(F)F)cc(S(=O)(=O)C(F)(F)F)c1)c1ncnn1-c1ccc(OC(F)F)cn1` (centres unmarked) [P28, N-[1-[2-[5-(difluoromethoxy)-2-pyridyl]-1,2,4-triazol-3-yl]ethyl]-3-(trifluoromethyl)-5-(trifluoromethylsulfonyl) benzamide] the percent control (mortality, anti-feedant effect or growth inhibition) at 200 ppm [1] was at least 80%, the mortality at 500 ppm [2] was at least 80% and the percent control (mortality, anti-feedant effect or growth inhibition) at 200 ppm [3] was at least 80%. The percent control (mortality or growth inhibition) at 200 ppm [4] was at least 80%.
For `CC(NC(=O)c1cc(C(F)(F)F)cc(C2(C#N)CC2)c1)c1ncnn1-c1ccc(OCC(F)(F)F)cn1` (centres unmarked) [P34, 3-(1-cyanocyclopropyl)-N-[1-[2-[5-(2,2,2-trifluoroethoxy)-2-pyridyl]-1,2,4-triazol-3-yl]ethyl]-5-(trifluoromethyl) benzamide], the melting point was 70 to 75 °C.
Work on `CC(NC(=O)c1cc(C(F)(F)F)cc(C(F)(F)C2CC2)c1)c1ncnn1-c1ccc(OCC(F)(F)F)cn1` (centres unmarked) [P35, 3-[cyclopropyl(difluoro)methyl]-N-[1-[2-[5-(2,2,2-trifluoroethoxy)-2-pyridyl]-1,2,4-triazol-3-yl]ethyl]-5-(trifluoromethyl) benzamide] yielded a melting point of 48 to 52 °C.
For `CC(NC(=O)c1cc(C(F)(F)F)cc(S(=O)(=O)C(F)(F)F)c1)c1ncnn1-c1ccc(OCC(F)(F)F)cn1` (centres unmarked) [P32, N-[1-[2-[5-(2,2,2-trifluoroethoxy)-2-pyridyl]-1,2,4-triazol-3-yl]ethyl]-3-(trifluoromethyl)-5-(trifluoromethylsulfonyl) benzamide], the melting point was 125 to 130 °C.
`CC(NC(=O)c1cc(C(F)(F)F)cc(C(F)(F)C2CC2)c1)c1ncnn1-c1ccc(OCC(F)F)cn1` (centres unmarked) [P36, 3-[cyclopropyl(difluoro)methyl]-N-[1-[2-[5-(2,2-difluoroethoxy)-2-pyridyl]-1,2,4-triazol-3-yl]ethyl]-5-(trifluoromethyl) benzamide] gave a melting point of 105 to 110 °C.
Work on `CC(NC(=O)c1cc(C2CC2C(F)(F)F)cc(C(F)(F)F)c1)c1ncnn1-c1ncc(OCC(F)F)cn1` (centres unmarked) [P12] yielded a percent control (mortality or growth inhibition) at 200 ppm [5] of at least 80%, a percent control (mortality, anti-feedant effect or growth inhibition) at 200 ppm [1] of at least 80% and a percent effect (mortality or growth inhibition) at 200 ppm [6] of at least 80%. For the same compound, the percent control (mortality, anti-feedant effect or growth inhibition) at 200 ppm [3] was at least 80% and the percent control (mortality or growth inhibition) at 200 ppm [4] was at least 80%.
`CC(NC(=O)c1cc(C2CC2)cc(C(F)(F)F)c1)c1ncnn1-c1ccc(C#N)cn1` (centres unmarked) [P14, N-[1-[2-(5-cyano-2-pyridyl)-1,2,4-triazol-3-yl]ethyl]-3-cyclopropyl-5-(trifluoromethyl)benzamide] showed a percent control (mortality or growth inhibition) at 200 ppm [5] of at least 80%, a percent control (mortality, anti-feedant effect or growth inhibition) at 200 ppm [1] of at least 80% and a mortality at 500 ppm [2] of at least 80%. It also gave a percent control (mortality, anti-feedant effect or growth inhibition) at 200 ppm [3] of at least 80% and a percent control (mortality or growth inhibition) at 200 ppm [4] of at least 80%.
Work on `CC(NC(=O)c1cc(C(F)(F)F)cc(S(=O)(=O)C(F)(F)F)c1)c1ncnn1-c1ncc(OCC(F)(F)F)cn1` (centres unmarked) [P29, N-[1-[2-[5-(2,2,2-trifluoroethoxy)pyrimidin-2-yl]-1,2,4-triazol-3-yl]ethyl]-3-(trifluoromethyl)-5-(trifluoromethylsulfonyl) benzamide] yielded a percent control (mortality, anti-feedant effect or growth inhibition) at 200 ppm [1] of at least 80%, a mortality at 500 ppm [2] of at least 80% and a percent control (mortality or growth inhibition) at 200 ppm [4] of at least 80%.
For `CC(NC(=O)c1cc(C(F)(F)F)cc(C(F)(F)C2CC2)c1)c1ncnn1-c1ncc(OC(F)F)cn1` (centres unmarked) [P6, 3-[cyclopropyl(difluoro)methyl]-N-[1-[2-[5-(difluoromethoxy)pyrimidin-2-yl]-1,2,4-triazol-3-yl]ethyl]-5-(trifluoromethyl) benzamide], the percent control (mortality or growth inhibition) at 200 ppm [5] was at least 80%, the percent control (mortality, anti-feedant effect or growth inhibition) at 200 ppm [1] was at least 80% and the percent effect (mortality or growth inhibition) at 200 ppm [6] was at least 80%. For the same compound, the mortality at 500 ppm [2] was at least 80%, the percent control (mortality, anti-feedant effect or growth inhibition) at 200 ppm [3] was at least 80% and the percent control (mortality or growth inhibition) at 200 ppm [4] was at least 80%.
In the case of `CC(NC(=O)c1cc(C2CC2)cc(C(F)(F)F)c1)c1ncnn1-c1ncc(OC(F)F)cn1` (centres unmarked) [P21, 3-cyclopropyl-N-[1-[2-[5-(difluoromethoxy)pyrimidin-2-yl]-1,2,4-triazol-3-yl]ethyl]-5-(trifluoromethyl) benzamide], the percent control (mortality or growth inhibition) at 200 ppm [5] is reported as at least 80%, the percent control (mortality, anti-feedant effect or growth inhibition) at 200 ppm [1] is reported as at least 80% and the percent effect (mortality or growth inhibition) at 200 ppm [6] is reported as at least 80%. For the same compound, the percent control (mortality, anti-feedant effect or growth inhibition) at 200 ppm [3] was at least 80% and the percent control (mortality or growth inhibition) at 200 ppm [4] was at least 80%.
With `CC(NC(=O)c1cc(C(F)(F)F)nc(C2(C#N)CC2)c1)c1ncnn1-c1ccc(OCC(F)(F)F)cn1` (centres unmarked) [P33, 2-(1-cyanocyclopropyl)-N-[1-[2-[5-(2,2,2-trifluoroethoxy)-2-pyridyl]-1,2,4-triazol-3-yl]ethyl]-6-(trifluoromethyl) pyridine-4-carboxamide] the melting point was 170 to 175 °C.
For `CC(NC(=O)c1cc(C(F)(F)F)nc(C2(C#N)CC2)c1)c1ncnn1-c1ccc(C#N)cn1` (centres unmarked) [P3, 2-(1-cyanocyclopropyl)-N-[1-[2-(5-cyano-2-pyridyl)-1,2,4-triazol-3-yl]ethyl]-6-(trifluoromethyl)pyridine-4-carboxamide], the percent control (mortality or growth inhibition) at 200 ppm [5] was at least 80%, the percent control (mortality, anti-feedant effect or growth inhibition) at 200 ppm [1] was at least 80% and the mortality at 500 ppm [2] was at least 80%. It also gave a percent control (mortality, anti-feedant effect or growth inhibition) at 200 ppm [3] of at least 80% and a percent control (mortality or growth inhibition) at 200 ppm [4] of at least 80%.
For `CC(NC(=O)c1cc(C(F)(F)F)cc(S(=O)(=O)C(F)(F)F)c1)c1ncnn1-c1ncc(OC(F)F)cn1` (centres unmarked) [P27, N-[1-[2-[5-(difluoromethoxy)pyrimidin-2-yl]-1,2,4-triazol-3-yl]ethyl]-3-(trifluoromethyl)-5-(trifluoromethylsulfonyl) benzamide], the percent control (mortality, anti-feedant effect or growth inhibition) at 200 ppm [1] was at least 80%, the mortality at 500 ppm [2] was at least 80% and the percent control (mortality, anti-feedant effect or growth inhibition) at 200 ppm [3] was at least 80%. It also gave a percent control (mortality or growth inhibition) at 200 ppm [4] of at least 80%.
With `CC(NC(=O)c1cc(C2CC2)nc(C(F)(F)F)c1)c1ncnn1-c1ncc(OC(F)F)cn1` (centres unmarked) [P9, 2-cyclopropyl-N-[1-[2-[5-(difluoromethoxy)pyrimidin-2-yl]-1,2,4-triazol-3-yl]ethyl]-6-(trifluoromethyl) pyridine-4-carboxamide] the percent control (mortality or growth inhibition) at 200 ppm [5] was at least 80%, the percent control (mortality, anti-feedant effect or growth inhibition) at 200 ppm [1] was at least 80% and the percent effect (mortality or growth inhibition) at 200 ppm [6] was at least 80%. For the same compound, the percent control (mortality, anti-feedant effect or growth inhibition) at 200 ppm [3] was at least 80% and the percent control (mortality or growth inhibition) at 200 ppm [4] was at least 80%.
